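Tested at 5 concentrations; 48 h exposure; 96-well plates; endpoints linearly interpolated, else capped at highest concentration. The concentration for 50% growth inhibition is given as GI50.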 Active and inactive are the calls of the source. Cut-off read from the data, not from the text of the source: active = GI50 up to about 1.1 µM and inactive = higher.
Experiments:
Assay in all cases: growth of human tumour cells (NCI), 48 h
[1] = system: MDA-N
[2] = system: BT-549
[3] = system: SR
[4] = system: 786-0
[5] = system: T47D
[6] = system: HCC 2998
[7] = system: SNB-75
[8] = system: PC-3
[9] = system: UO-31
[10] = system: M14
[11] = system: NCI-H460
[12] = system: RPMI-8226
[13] = system: COLO 205
[14] = system: UACC-62
[15] = system: U-251
[16] = system: HCT-116
[17] = system: UACC-257
[18] = system: SK-MEL-2
[19] = system: MDA-MB-231
[20] = system: SF-539
[21] = system: HL-60
[22] = system: SF-268
[23] = system: OVCAR-8
[24] = system: CAKI-1
[25] = system: IGROV-1
[26] = system: OVCAR-4
[27] = system: HOP-62
[28] = system: SF-295
[29] = system: NCI/ADR-RES
[30] = system: NCI-H23
[31] = system: Malme-3M
[32] = system: SN12C
[33] = system: A498
[34] = system: ACHN
[35] = system: CCRF-CEM
[36] = system: A549
[37] = system: HT-29
[38] = system: DU-145
[39] = system: RXF 393
[40] = system: SW-620
[41] = system: TK-10
[42] = system: MOLT-4
[43] = system: OVCAR-5
[44] = system: EKVX
[45] = system: KM12
[46] = system: SNB-19
[47] = system: HOP-92
[48] = system: NCI-H522
[49] = system: SK-MEL-5
[50] = system: SK-MEL-28
[51] = system: LOX IMVI
[52] = system: MDA-MB-435
[53] = system: MCF7
[54] = system: HCT-15
[55] = system: NCI-H226
[56] = system: K562
[57] = system: SK-OV-3
[58] = system: OVCAR-3

Measured: GI50

COc1ccc(/C=C/C(=O)Oc2cc(O)cc(O)c2)cc1
inactive: [1] 58.5 µM | [2] 49.8 µM | [3] 25.1 µM | [4] 56.9 µM | [5] 43.5 µM | [6] 33 µM | [7] 38.1 µM | [8] 43.6 µM | [9] 37.6 µM | [10] 41.4 µM | [11] > 100 µM | [12] 16.3 µM | [13] 57.9 µM | [14] > 100 µM | [15] 24.6 µM | [16] 14.3 µM | [17] > 100 µM | [18] > 100 µM | [19] 35.7 µM | [20] 95.1 µM | [21] 22 µM | [22] 26.2 µM | [23] 28.2 µM | [24] 17.2 µM | [25] 16.5 µM | [26] 85.5 µM | [27] 17.3 µM | [28] 23.2 µM | [29] 34.4 µM | [30] 42.1 µM | [31] 36.6 µM | [32] 36.4 µM | [33] > 100 µM | [34] 87.5 µM | [35] 11.5 µM | [36] 34.8 µM | [37] 29.4 µM | [38] 56.6 µM | [39] 72.4 µM | [40] 41.1 µM | [41] > 100 µM | [42] 11.3 µM | [43] > 100 µM | [44] 56.2 µM | [45] 14.2 µM | [46] > 100 µM | [47] 93.1 µM | [48] 24.4 µM | [49] 52.8 µM | [50] > 100 µM | [51] 20.1 µM | [52] 61.9 µM | [53] 19.5 µM | [55] > 100 µM | [56] 22.5 µM | [57] > 100 µM | [58] 18 µM
16.9 µM: [54]

CCOP(=O)(OCC)C(Nc1cccc([N+](=O)[O-])c1)c1ccccc1 (stereo not given)
71.6 µM: [54]
active: [25] 0.108 µM
inactive: [1] > 100 µM | [2] > 100 µM | [3] > 100 µM | [4] > 100 µM | [5] 18.8 µM | [6] > 100 µM | [7] 71.9 µM | [8] 38.6 µM | [9] 48.8 µM | [10] > 100 µM | [11] 80 µM | [12] 76.7 µM | [13] 34.6 µM | [14] 58.2 µM | [15] > 100 µM | [16] 65 µM | [17] 72.1 µM | [18] 82.4 µM | [19] 58.9 µM | [20] > 100 µM | [21] 39.9 µM | [22] > 100 µM | [23] > 10 µM | [24] > 100 µM | [26] > 100 µM | [27] > 100 µM | [28] > 100 µM | [29] 97.1 µM | [30] > 100 µM | [31] 40.1 µM | [32] > 100 µM | [33] > 100 µM | [34] > 100 µM | [35] 68.1 µM | [36] 57.1 µM | [37] 75 µM | [38] > 100 µM | [39] 88.3 µM | [41] > 100 µM | [42] 39.4 µM | [43] > 100 µM | [44] 62.2 µM | [45] > 100 µM | [46] > 100 µM | [47] 62.4 µM | [48] 90.2 µM | [49] 64.3 µM | [50] > 100 µM | [51] 73.3 µM | [52] > 100 µM | [53] > 100 µM | [55] > 100 µM | [56] 38.2 µM | [57] > 100 µM | [58] > 100 µM
